Source: US11033535B2, “Oxadiazoles and thiadiazoles as TGF-β inhibitors” (Southern Research Institute, priority 2017, dated 2021)

Biological target: (Homo sapiens, UniProt P07996)
Experiment: Secondary Assay, inhibitory activity of thiadiazole and oxadiazole analogs as TGF-beta inhibitors
Format: biochemical
Details: Table I
Description: A summary of the inhibitory activity of representative thiadiazole analogs (Tables i and ii) and oxadiazole analogs (Table ii) is shown below.
For initial screening, an ELISA-based screening assay was used in which purified human platelet TSP-1 was incubated with compounds and then incubated with recombinant latent TGF-β1 (purchased from R&D Systems). Activity is measured in a commercially available ELISA which detects only active TGF-β (R &D Systems). Activity in the presence of compounds is compared to activity in TSP-1+latent TGF-β samples without inhibitory compounds (Lu et al. (2016) Am J Pathol 186:678-690).
To specifically assess activity of compounds in liver cell specific assays, two different assays were used. In the first, human hepatic stellate cells were incubated overnight in low serum media to condition the media with secreted latent TGF-β. Purified TSP1 either pre-incubated with compounds or not will be added to cultures and then conditioned media harvested to assess TGF-β biological activity using the R&D Systems ELISA as above. Hepatic stellate cells will be purchased from commercial sources. Although hepatic stellate cells are the primary drivers of liver fibrosis, conditions which drive liver fibrosis can induce hepatocyte TSP-1 expression which can then have paracrine effects on controlling TGF-β activation in hepatic stellate cells. Furthermore, TGF-β can negatively impact hepatocyte regeneration following injury. Therefore, the ability of compounds to block TSP-1 activation of latent TGF-β will also be assessed in cultured primary human hepatocytes following the protocol described for the hepatic stellate cells. Similar approaches have successfully been used to screen compounds which inhibit human myeloma cell derived latent TGF-β activation by TSP-1 (Lu et al. (2016) Am J Pathol 186:678-690).

Sequence of (Homo sapiens, UniProt P07996) (P07996 whole entry): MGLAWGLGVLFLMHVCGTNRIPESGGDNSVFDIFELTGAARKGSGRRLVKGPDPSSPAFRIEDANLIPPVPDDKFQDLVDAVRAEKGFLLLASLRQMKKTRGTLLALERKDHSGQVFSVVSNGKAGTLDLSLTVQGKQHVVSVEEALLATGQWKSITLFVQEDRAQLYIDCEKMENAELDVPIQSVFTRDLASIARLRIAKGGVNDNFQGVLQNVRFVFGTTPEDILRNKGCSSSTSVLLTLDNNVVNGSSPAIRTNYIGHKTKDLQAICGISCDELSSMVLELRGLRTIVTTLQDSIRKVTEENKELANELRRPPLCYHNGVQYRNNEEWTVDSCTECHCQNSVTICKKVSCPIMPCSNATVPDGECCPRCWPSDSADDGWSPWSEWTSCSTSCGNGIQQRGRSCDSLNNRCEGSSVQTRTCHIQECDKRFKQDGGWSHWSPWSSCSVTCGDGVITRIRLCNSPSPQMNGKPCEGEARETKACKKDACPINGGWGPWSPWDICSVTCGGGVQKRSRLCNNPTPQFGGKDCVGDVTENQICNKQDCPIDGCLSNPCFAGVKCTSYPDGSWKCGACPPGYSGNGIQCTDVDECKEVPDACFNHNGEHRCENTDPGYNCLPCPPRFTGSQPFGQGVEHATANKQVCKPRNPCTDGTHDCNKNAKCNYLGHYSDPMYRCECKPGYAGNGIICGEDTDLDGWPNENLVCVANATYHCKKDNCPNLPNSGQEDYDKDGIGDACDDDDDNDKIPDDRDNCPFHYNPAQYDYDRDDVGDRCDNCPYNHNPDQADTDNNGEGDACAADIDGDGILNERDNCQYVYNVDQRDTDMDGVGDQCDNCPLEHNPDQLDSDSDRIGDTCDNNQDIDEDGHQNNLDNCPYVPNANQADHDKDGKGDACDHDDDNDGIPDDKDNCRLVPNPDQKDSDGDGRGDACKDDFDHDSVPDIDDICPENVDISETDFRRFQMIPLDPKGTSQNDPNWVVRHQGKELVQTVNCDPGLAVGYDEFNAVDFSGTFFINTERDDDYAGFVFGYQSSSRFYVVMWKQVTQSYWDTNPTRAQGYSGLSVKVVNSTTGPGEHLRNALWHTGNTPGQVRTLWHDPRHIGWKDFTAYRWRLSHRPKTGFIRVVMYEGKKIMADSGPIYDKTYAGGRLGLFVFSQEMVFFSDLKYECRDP

| IC50 [nM] | Compound |
| --- | --- |
| 51 | CNCc1ccc(C[C@H](NC(C)=O)c2nnc(-c3cccc(OC(F)(F)F)c3)s2)cc1 [Compound 42140, N-(2-(4-((methylamino)methyl)phenyl)-1-(5-(3-(trifluoromethoxy)phenyl)-1,3,4-thiadiazol-2-yl)ethyl)acetamide] |
| 2 | CC(=O)N[C@@H](Cc1ccc(CN(C)C)cc1)c1nnc(-c2cccc(OC(F)(F)F)c2)s1 [Compound 42320, N-(2-(4-((dimethylamino)methyl)phenyl)-1-(5-(3-(trifluoromethoxy)phenyl)-1,3,4-thiadiazol-2-yl)ethyl)acetamide] |
